# Measurements published in ChEMBL document CHEMBL1137512, “Synthesis and evaluation of chloromethyl sulfoxides as a new class of selective irreversible cysteine protease inhibitors” (Bioorg Med Chem, 2007).
# Active and inactive are the calls of the source. The rule behind the calls is not given here.
# Tests used:
# [1] = Inhibition of papain by colorimetric assay
# [2] = Binding affinity to papain at 10 uM by fluorescent binding test
SMILES,Ki [1] [µM],Activity [2] [%],Activity [1]
CN(C)c1cccc2c(S(=O)(=O)NCC(=O)NCC[S+]([O-])CCl)cccc12 (stereo not drawn),471,40,
CC(C)(C)OC(=O)N[C@@H](Cc1ccccc1)C[S+]([O-])CCl (stereo partly drawn),142,,
CC(C)(C)OC(=O)NCC[S+]([O-])CCl (stereo not drawn),,,inactive
CC(C)C[C@@H](C[S+]([O-])CCl)NC(=O)OC(C)(C)C (stereo partly drawn),485,,
CC(C)[C@@H](C[S+]([O-])CCl)NC(=O)OC(C)(C)C (stereo partly drawn),543,,
C[C@@H](C[S+]([O-])CCl)NC(=O)OC(C)(C)C (stereo partly drawn),1430,,
CC(C)(C)OC(=O)N[C@@H](Cc1ccccc1)C(=O)NCC[S+]([O-])CCl (stereo partly drawn),3670,,
